Like-named read-outs stand apart in the source and are kept apart here.
Tests used:
Nav 1.5 = Nav 1.5 (Homo sapiens (Human), UniProt Q14524); assay: Inhibition of sodium channels, Red Membrane Potential Dye FLIPR assay, veratridine depolarization; type: cell-based; conditions: HEK-293 cells overexpressing the channel; for inhibition at 10 µM: HEK-293 cells overexpressing Nav 1.5
Nav 1.7 = Nav 1.7 (Homo sapiens (Human), UniProt Q15858); assay: as above; type: cell-based; conditions: HEK-293 cells overexpressing the channel; for IC50: read-out: Nav1.7 IC50
Nav 1.7, sequence (Q15858 whole entry): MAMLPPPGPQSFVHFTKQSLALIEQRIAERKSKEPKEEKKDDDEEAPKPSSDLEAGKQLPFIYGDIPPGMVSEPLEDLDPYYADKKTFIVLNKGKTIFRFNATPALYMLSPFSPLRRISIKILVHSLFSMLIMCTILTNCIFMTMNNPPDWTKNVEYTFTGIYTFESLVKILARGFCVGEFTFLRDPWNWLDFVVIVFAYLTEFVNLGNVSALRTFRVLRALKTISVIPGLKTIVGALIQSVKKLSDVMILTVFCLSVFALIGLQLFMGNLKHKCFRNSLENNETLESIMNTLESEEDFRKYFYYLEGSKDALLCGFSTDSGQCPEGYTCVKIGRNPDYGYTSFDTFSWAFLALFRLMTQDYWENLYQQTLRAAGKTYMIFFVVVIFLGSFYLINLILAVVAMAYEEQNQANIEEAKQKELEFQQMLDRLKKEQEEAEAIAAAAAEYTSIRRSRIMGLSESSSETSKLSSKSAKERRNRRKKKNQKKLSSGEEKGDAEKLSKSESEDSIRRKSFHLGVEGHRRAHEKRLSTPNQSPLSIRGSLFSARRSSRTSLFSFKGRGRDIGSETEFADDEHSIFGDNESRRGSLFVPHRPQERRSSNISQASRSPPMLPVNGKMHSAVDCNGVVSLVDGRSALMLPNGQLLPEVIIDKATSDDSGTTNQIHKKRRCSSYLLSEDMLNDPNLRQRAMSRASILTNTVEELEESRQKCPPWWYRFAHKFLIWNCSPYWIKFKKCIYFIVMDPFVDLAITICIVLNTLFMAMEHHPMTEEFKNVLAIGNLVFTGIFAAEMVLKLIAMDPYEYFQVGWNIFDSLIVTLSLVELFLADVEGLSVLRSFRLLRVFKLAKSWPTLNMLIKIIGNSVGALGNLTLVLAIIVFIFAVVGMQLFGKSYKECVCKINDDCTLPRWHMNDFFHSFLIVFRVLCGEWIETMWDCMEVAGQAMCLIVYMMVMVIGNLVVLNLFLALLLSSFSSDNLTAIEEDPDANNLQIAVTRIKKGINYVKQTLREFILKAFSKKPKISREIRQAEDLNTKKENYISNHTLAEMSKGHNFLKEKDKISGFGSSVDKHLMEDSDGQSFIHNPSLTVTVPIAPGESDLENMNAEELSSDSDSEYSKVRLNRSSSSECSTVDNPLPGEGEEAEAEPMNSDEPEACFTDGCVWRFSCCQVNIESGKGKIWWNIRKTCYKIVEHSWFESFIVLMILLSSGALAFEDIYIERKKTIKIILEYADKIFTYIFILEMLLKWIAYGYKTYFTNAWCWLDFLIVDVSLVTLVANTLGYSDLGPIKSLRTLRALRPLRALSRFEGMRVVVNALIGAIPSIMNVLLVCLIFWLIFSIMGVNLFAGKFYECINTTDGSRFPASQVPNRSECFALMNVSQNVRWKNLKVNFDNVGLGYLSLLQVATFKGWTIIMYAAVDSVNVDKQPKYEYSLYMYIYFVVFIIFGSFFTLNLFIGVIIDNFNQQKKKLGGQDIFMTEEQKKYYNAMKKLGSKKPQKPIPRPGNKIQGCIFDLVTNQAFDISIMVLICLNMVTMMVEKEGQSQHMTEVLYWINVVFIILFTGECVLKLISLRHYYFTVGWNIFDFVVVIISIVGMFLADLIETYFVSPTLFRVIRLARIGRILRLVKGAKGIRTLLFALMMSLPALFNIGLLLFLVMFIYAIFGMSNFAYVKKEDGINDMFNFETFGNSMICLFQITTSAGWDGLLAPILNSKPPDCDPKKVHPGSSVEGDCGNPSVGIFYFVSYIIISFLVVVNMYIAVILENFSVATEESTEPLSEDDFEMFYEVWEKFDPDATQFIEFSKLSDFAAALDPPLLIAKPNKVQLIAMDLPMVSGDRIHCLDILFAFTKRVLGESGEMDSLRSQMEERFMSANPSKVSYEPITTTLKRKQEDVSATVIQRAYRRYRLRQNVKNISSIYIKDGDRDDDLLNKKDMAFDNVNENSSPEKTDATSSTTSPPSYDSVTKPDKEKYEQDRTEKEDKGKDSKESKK

[1] = read-out: Nav1.5 IC50 (bound given in μM)

Nav 1.5, sequence (Q14524 whole entry): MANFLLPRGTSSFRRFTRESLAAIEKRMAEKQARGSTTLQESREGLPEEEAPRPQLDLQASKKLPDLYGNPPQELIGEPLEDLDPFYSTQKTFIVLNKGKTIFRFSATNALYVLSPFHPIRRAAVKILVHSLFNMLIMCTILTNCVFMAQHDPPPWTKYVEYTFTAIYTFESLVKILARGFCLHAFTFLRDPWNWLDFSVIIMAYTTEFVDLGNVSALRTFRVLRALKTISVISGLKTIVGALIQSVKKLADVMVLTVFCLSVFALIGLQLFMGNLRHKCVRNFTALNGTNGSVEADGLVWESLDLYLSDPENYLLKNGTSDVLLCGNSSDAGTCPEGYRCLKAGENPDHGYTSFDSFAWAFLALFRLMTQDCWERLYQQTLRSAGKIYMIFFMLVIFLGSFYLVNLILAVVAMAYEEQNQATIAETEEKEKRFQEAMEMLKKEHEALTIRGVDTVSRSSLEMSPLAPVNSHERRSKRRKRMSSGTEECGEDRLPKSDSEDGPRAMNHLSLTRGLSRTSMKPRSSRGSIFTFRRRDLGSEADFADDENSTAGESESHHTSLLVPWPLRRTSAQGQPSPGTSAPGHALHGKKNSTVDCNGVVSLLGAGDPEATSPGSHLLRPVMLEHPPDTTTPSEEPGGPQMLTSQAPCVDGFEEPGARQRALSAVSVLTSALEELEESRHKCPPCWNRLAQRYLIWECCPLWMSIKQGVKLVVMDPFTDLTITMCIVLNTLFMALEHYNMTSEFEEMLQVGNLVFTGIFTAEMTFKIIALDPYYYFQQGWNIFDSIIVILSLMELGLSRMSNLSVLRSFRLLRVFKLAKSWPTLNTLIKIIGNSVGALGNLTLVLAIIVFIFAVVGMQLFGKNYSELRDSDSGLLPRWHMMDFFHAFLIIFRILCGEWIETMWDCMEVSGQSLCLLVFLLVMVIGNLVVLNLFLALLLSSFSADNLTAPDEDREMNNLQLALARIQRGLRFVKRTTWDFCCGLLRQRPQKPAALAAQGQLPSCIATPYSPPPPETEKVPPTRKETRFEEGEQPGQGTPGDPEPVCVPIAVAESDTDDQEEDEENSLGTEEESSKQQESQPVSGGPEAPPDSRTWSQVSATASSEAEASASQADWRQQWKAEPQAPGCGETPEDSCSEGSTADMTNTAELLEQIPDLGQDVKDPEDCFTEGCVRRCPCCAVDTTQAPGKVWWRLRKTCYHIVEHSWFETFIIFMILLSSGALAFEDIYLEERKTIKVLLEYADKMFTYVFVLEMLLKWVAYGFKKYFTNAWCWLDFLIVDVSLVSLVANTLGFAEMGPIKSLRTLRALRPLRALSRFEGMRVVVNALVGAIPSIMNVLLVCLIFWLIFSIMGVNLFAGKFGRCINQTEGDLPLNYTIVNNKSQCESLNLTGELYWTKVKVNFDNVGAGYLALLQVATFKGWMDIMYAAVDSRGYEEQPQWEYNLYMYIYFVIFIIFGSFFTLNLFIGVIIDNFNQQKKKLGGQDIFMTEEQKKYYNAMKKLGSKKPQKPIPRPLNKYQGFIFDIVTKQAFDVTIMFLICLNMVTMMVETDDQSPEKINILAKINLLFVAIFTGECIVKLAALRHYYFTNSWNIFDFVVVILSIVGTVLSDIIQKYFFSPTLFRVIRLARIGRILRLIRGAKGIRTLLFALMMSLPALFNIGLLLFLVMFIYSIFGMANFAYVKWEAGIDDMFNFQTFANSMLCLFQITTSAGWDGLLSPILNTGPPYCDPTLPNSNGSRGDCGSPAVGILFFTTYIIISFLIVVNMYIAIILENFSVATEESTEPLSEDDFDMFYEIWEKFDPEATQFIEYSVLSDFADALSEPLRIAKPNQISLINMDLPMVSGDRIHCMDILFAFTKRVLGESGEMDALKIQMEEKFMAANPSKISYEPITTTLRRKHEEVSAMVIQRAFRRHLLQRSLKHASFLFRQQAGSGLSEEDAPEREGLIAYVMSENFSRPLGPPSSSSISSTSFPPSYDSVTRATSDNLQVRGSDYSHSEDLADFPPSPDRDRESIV

Row | SMILES | IC50 (Nav 1.7) [nM] | IC50 (Nav 1.5; [1]) [µM] | also measured
1 | CCCc1cc(C(F)(F)F)ccc1[C@@H]1CCOc2cc(S(=O)(=O)Nc3cccc(F)n3)ccc21 [Example-244, (S&R)—N-(6-fluoropyridin-2-yl)-4-(2-propyl-4-(trifluoromethyl)phenyl)chroman-7-sulfonamide] | 474 |  | Nav1.5 % inhibition @ 10 μM (Nav 1.5): 69%
2 | COCCOc1cc(C(F)(F)F)ccc1[C@H]1CCOc2cc(S(=O)(=O)Nc3ncc(F)cn3)ccc21 (racemic) [Example 126, (R/S)—N-(5-fluoropyrimidin-2-yl)-4-(2-(2-methoxyethoxy)-4-(trifluoromethyl)phenyl)chroman-7-sulfonamide] | 140 | > 10 | 
3 | O=S(=O)(Nc1ncc(F)cn1)c1ccc2c(c1)OCC[C@@H]2c1ccc(C(F)(F)F)cc1CCF (racemic) [Example 154, (R/S)-4-(2-(2-fluoroethyl)-4-(trifluoromethyl)phenyl)-N-(5-fluoropyrimidin-2-yl)chroman-7-sulfonamide] | 83 | > 10 | 
4 | COCCCCc1cc(C(F)(F)F)ccc1[C@H]1CCOc2cc(S(=O)(=O)Nc3cccnn3)ccc21 (racemic) [Example 150, (R/S)-4-(2-(4-methoxybutyl)-4-(trifluoromethyl)phenyl)-N-(pyridazin-3-yl)chroman-7-sulfonamide] | 31 |  | IC50 (Nav 1.5; read-out: Nav1.5 IC50): 1.43 µM
5 | O=S(=O)(Nc1ncccn1)c1ccc2c(c1)OCC[C@@H]2c1ccc(C(F)(F)F)cc1-c1nccs1 (racemic) [Example 93, (R/S)—N-(pyrimidin-2-yl)-4-(2-(thiazol-2-yl)-4-(trifluoromethyl)phenyl)chroman-7-sulfonamide] | 4 |  | inhibition at 10 µM (Nav 1.5): 56%
6 | O=C1CCCN1c1cc(C(F)(F)F)ccc1[C@H]1CCOc2cc(S(=O)(=O)Nc3ccncn3)ccc21 (racemic) [Example 116, (R/S)-4-(2-(2-oxopyrrolidin-1-yl)-4-(trifluoromethyl)phenyl)-N-(pyrimidin-4-yl)chroman-7-sulfonamide] | 1960 | > 10 | 
7 | O=S(=O)(Nc1cccc(F)n1)c1ccc2c(c1)OCC[C@@H]2c1ccc(C(F)(F)F)cc1CCCF (racemic) [Example 162, (R/S)-4-(2-(3-fluoropropyl)-4-(trifluoromethyl)phenyl)-N-(6-fluoropyridin-2-yl)chroman-7-sulfonamide] | 0.7 |  | IC50 (Nav 1.5; read-out: Nav1.5 IC50): 2.64 µM
8 | O=S(=O)(Nc1ncccn1)c1ccc2c(c1)OCC[C@@H]2c1ccc(C(F)(F)F)cc1OC1CCOCC1 [Example-169, (R&S)—N-(pyrimidin-2-yl)-4-(2-((tetrahydro-2H-pyran-4-yl)oxy)-4-(trifluoromethyl)phenyl)chroman-7-sulfonamide] | 43 |  | IC50 (Nav 1.5; read-out: Nav1.5 IC50): 4.89 µM
9 | O=S(=O)(Nc1ccncn1)c1ccc2c(c1)OCC[C@@H]2c1ccc(C(F)(F)F)cc1CCCF (racemic) [Example 160, (R/S)-4-(2-(3-fluoropropyl)-4-(trifluoromethyl)phenyl)-N-(pyrimidin-4-yl)chroman-7-sulfonamide] | 0.7 |  | inhibition at 10 µM (Nav 1.5): 61%
10 | CCCc1cc(C(F)(F)F)ccc1[C@H]1CCOc2cc(S(=O)(=O)Nc3cccc(F)n3)ccc21 [Example-245, (S&R)—N-(6-fluoropyridin-2-yl)-4-(2-propyl-4-(trifluoromethyl)phenyl)chroman-7-sulfonamide] | 41 |  | Nav1.5 % inhibition @ 10 μM (Nav 1.5): 75%
11 | COCCCOc1cc(C(F)(F)F)ccc1[C@H]1CCOc2cc(S(=O)(=O)Nc3cccc(F)n3)ccc21 (racemic) [Example 134, (R/S)—N-(6-fluoropyridin-2-yl)-4-(2-(3-methoxypropoxy)-4-(trifluoromethyl)phenyl)chroman-7-sulfonamide] | 31 |  | IC50 (Nav 1.5; read-out: Nav1.5 IC50): 1.34 µM
12 | Cn1nccc1-c1cc(C(F)(F)F)ccc1[C@@H]1CCOc2cc(S(=O)(=O)Nc3ncccc3F)ccc21 [Example 17, (S&R)—N-(3-Fluoropyridin-2-yl)-4-(2-(1-methyl-1H-pyrazol-5-yl)-4-(trifluoromethyl)phenyl)chromane-7-sulfonamide] |  | > 10 | Nav1.7 inhibition @ 10 μM (Nav 1.7; 10 μM): 96%
13 | CS(=O)(=O)CCc1cc(C(F)(F)F)ccc1[C@H]1CCOc2cc(S(=O)(=O)Nc3ncc(F)cn3)ccc21 [Example 86, (S&R)—N-(5-Fluoropyrimidin-2-yl)-4-(2-(2-(methylsulfonyl)ethyl)-4-(trifluoromethyl)phenyl)chroman-7-sulfonamide] | 2390 | > 10 | 
14 | O=S(=O)(Nc1ccncn1)c1ccc2c(c1)OCC[C@@H]2c1ccc(C(F)(F)F)cc1O[C@H]1CCOC1 (racemic) [Example-183, (S/R)—N-(pyrimidin-4-yl)-4-(2-(((S)-tetrahydrofuran-3-yl)oxy)-4-(trifluoromethyl)phenyl)chroman-7-sulfonamide] | 11 | > 10 | 
15 | O=S(=O)(Nc1ncccn1)c1ccc2c(c1)OCCC2c1ccc(C(F)(F)F)cc1O[C@@H]1CCOC1 (stereo partly drawn) [Example-186, (S&R)—N-(pyrimidin-2-yl)-4-(2-(((R)-tetrahydrofuran-3-yl)oxy)-4-(trifluoromethyl)phenyl)chroman-7-sulfonamide] | 83 |  | Nav1.5 % inhibition @ 10 μM (Nav 1.5): 46%
16 | O=S(=O)(Nc1cccc(F)n1)c1ccc2c(c1)OCCC2c1ccc(C(F)(F)F)cc1O[C@H]1CCOC1 (stereo partly drawn) [Example-181, (R&S)—N-(6-fluoropyridin-2-yl)-4-(2-(((S)-tetrahydrofuran-3-yl)oxy)-4-(trifluoromethyl)phenyl)chroman-7-sulfonamide] | 0.9 |  | Nav1.5 % inhibition @ 10 μM (Nav 1.5): 43%
17 | Cc1nc(-c2cc(C(F)(F)F)ccc2[C@H]2CCOc3cc(S(=O)(=O)Nc4ncccn4)ccc32)cs1 [Example 64, (S&R)-4-(2-(2-Methylthiazol-4-yl)-4-(trifluoromethyl)phenyl)-N-(pyrimidin-2-yl)chroman-7-sulfonamide] | 3 | > 10 | 
18 | Cc1cccc(NS(=O)(=O)c2ccc3c(c2)OCC[C@H]3c2ccc(C(F)(F)F)cc2-c2ccnn2C)n1 [Example 19, (S&R)-4-(2-(1-methyl-1H-pyrazol-5-yl)-4-(trifluoromethyl)phenyl)-N-(6-methylpyridin-2-yl)chroman-7-sulfonamide] | 1010 | > 10 | 
19 | COCCCOc1cc(C(F)(F)F)ccc1[C@H]1CCOc2cc(S(=O)(=O)Nc3cccnn3)ccc21 (racemic) [Example 133, (R/S)-4-(2-(3-methoxypropoxy)-4-(trifluoromethyl)phenyl)-N-(pyridazin-3-yl)chroman-7-sulfonamide] | 128 |  | inhibition at 10 µM (Nav 1.5): 66%
20 | CC(C)Oc1ccc(-c2cc(C(F)(F)F)ccc2[C@H]2CCOc3cc(S(=O)(=O)Nc4ncccn4)ccc32)cn1 [Example 98, (S&R)-4-(2-(6-isopropoxypyridin-3-yl)-4-(trifluoromethyl)phenyl)-N-(pyrimidin-2-yl)chroman-7-sulfonamide] | 11 |  | IC50 (Nav 1.5; read-out: Nav1.5 IC50): 0.432 µM
21 | O=S(=O)(Nc1ncccn1)c1ccc2c(c1)OCC[C@@H]2c1ccc(C(F)(F)F)cc1Cl (racemic) [Example 104, (S/R)-4-(2-Chloro-4-(trifluoromethyl)phenyl)-N-(pyrimidin-2-yl)chroman-7-sulfonamide] | 184 | > 10 | 
22 | O=C1CCCN1c1cc(C(F)(F)F)ccc1[C@@H]1CCOc2cc(S(=O)(=O)Nc3cccc(F)n3)ccc21 [Example 111, (S&R)—N-(6-Fluoropyridin-2-yl)-4-(2-(2-oxopyrrolidin-1-yl)-4-(trifluoromethyl)phenyl)chroman-7-sulfonamide] | 814 |  | Nav1.5 % inhibition @ 10 μM (Nav 1.5): 67%

— US10239869B2, “Sulfonamide compounds as voltage-gated sodium channel modulators” (LUPIN LIMITED, priority 2015, dated 2019)
